Assay results as given in patent US8906960B2, “Synergistic effect of tocotrienols and curcumin” (Malaysian Palm Oil Board, priority 2010, dated 2014).

What was measured:
[1] = tested on: MCF-7 human breast cancer cells; experiment: Cell growth experiment: inhibition of proliferation of MCF-7 cells (viable cell count after 72 hours); assay type: cell-based
Method: Stock solution of TRF and curcumin was prepared in dimethyl sulfoxide (DMSO) at a concentration of 10 mg/mL. For cell growth experiments (as described below), treatments of TRF and curcumin were diluted in phenol red-free RPMI 1640 medium supplemented with 5% dextran-charcoal-treated […]) to final concentrations of 1-100 μM in test medium. MCF-7 cells were suspended from T75 flask by treatment of trypsin to an equal volume of phenol red free RPMI 1640 medium supplemented with 5% dextran-charcoal treated […]), 1% penicillin-streptomycin, 1% L-glutamine and counted on a haemocytometer. Cells were added to the required volume of phenol red free RPMI medium supplemented with 5% dextran-charcoal treated […]), 1% penicillin-streptomycin, 1% L-glutamine. […] MCF-7 cells were seeded in each well of 24-well tissue culture dishes. […] Cell proliferation was measured by using an automated particle counter, Beckman Coulter Particle Counter. […] The nuclei released were counted in isoton on a Coulter particle counter. […] The IC50 value was calculated as an average of three generated value of each replicates. Comparisons between means of six groups were assessed for significance. […]

[2] = tested on: B16F-10 melanoma lung metastasis; conditions: cited from earlier work
[3] = tested on: PC-3, a prostate cancer cell; conditions: PC-3 prostate cancer cell; cited from earlier work
[4] = tested on: vascular cell adhesion molecule-1 (VCAM-1) expression; THP-1 adhesion to HUVECs; conditions: suppression of VCAM-1 expression and THP-1 adhesion to HUVECs; cited from earlier work

COc1cc(/C=C/C(=O)CC(=O)/C=C/c2ccc(O)c(OC)c2)ccc1O [Curcumin]
IC50 ([1]; Homo sapiens, MCF7, MCF-7 cells, 72 hours, 10^-8 M estradiol, test compounds 1-100 μM, combinations with 1 μM of the second ingredient): 25.3 µM | Effect of curcumin on the anti-proliferative effect of tocotrienols ([1]; estrogen-positive MCF-7 human breast cancer cells in vitro): synergistically enhanced the anti-proliferative effect of tocotrienols | Increase of life span of the animals ([2]; mice treated with curcumin): 143.85% | Reduction of the number of lung tumor nodules ([2]; oral administration, 200 nmol/kg body weight, mice): 80%

Cc1c(C)c2c(c(C)c1O)CC[C@@](C)(CCC[C@H](C)CCC[C@H](C)CCCC(C)C)O2 [α-tocopherol]
Effect on proliferation of PC-3 [3]: no significant effects

CC(C)=CCC/C(C)=C/CC/C(C)=C/CC[C@]1(C)CCc2c(C)c(O)c(C)c(C)c2O1 [α-tocotrienol]
Efficacy relative to α-tocopherol [4]: 10 fold

CC(C)=CCC/C(C)=C/CC/C(C)=C/CC[C@]1(C)CCc2cc(O)c(C)c(C)c2O1 [γ-tocotrienol]
Effect on proliferation of PC-3 [3]: inhibit the proliferation

CC(C)=CCC/C(C)=C/CC/C(C)=C/CC[C@]1(C)CCc2cc(O)cc(C)c2O1 [δ-tocotrienol]
Effect on proliferation of PC-3 [3]: inhibit the proliferation
